Values of other authors as cited in patent US6509447B1, “G protein chimeras and methods of screening compounds” (Glaxo Welcome Inc., priority 1997, dated 2003).
pKd: −log10 of the molar value.

Target: T1, Ste2p (Saccharomyces cerevisiae, UniProt D6VTK4)
T1 sequence (D6VTK4 1-431): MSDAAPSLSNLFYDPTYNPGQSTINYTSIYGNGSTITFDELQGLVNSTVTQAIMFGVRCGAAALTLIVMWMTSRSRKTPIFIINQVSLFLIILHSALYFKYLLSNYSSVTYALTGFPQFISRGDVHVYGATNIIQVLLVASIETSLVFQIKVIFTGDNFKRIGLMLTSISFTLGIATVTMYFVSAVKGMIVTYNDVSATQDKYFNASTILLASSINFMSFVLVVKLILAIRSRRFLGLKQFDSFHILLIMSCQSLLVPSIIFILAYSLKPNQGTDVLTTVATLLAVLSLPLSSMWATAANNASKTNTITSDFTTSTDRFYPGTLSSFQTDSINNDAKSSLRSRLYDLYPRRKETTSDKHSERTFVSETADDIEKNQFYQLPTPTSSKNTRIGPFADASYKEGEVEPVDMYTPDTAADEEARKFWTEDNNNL
Settings: literature reference (3); read-out: reported affinity of Ste2p for α-factor peptide (Kd); cited from earlier work

Q: With α-factor as the substance, how does the pKd read?
A: 7.77
